The test system of assay [1] is Gram negative non-fermenting bacteria. Briefly: Liquid broth assays (MIC and checkerboard), modified ISO 20776-1:2006. The class given is cell-based. Particulars: individual chemical; tryptic soy broth, 30° C., 24 hours, OD600; MIC = <25% growth vs positive growth control. The source says:
(§1) The differing behaviours of inhibitory antimicrobials in isolation and mixtures have been widely explored using the concept of the Fractional Concentration and Fractional Inhibitory Concentration (FIC). See for instance JRW Lambert and R Lambert, J. Appl. Microbiol 95, 734 (2003); T. Jadavji, C G Prober and R Cheung, Antimicrobial Agents and Chemotherapy 26, 91 (1984), and WO 2004/006876. These parameters can be defined as follows: FC(component a)=Concentration of component a tested in the mixture/MIC(component a tested as a single active) FIC(component a)=MIC(component a tested in the mixture)/MIC(component a tested as a single active)
(§2) These relationships can be expressed mathematically by summing the fractional MIC values for all the components present in the mixture to give the “fractional inhibitory index”: ΣFIC=FIC(component 1)+FIC(component 2)
(§3) Liquid broth assays (MIC and checkerboard) were conducted to identify the minimum concentration(s) of individual and binary combinations of preservation chemicals. A modified methodology to ISO 20776-1:2006 was utilised for the screening as follows. Stock solutions of preservation chemicals and tryptic soy broth were inoculated with 1-5×10^6 microorganisms and incubated at 30° C. for 24 hours, after which optical densities at OD600 nm were measured. Microorganisms used for assessed included Gram negative non-fermenting bacteria: Pseudomonas aeruginosa, Pseudomonas putida & Burkholderia cepacia and Gram negative fermenting bacteria: Enterobacter gergoviae & Klebsiella species. […] Preservation chemicals were screened at a concentration range of 0.0156-2%.

The subject of assay [2] is Gram negative fermenting bacteria. The assay is described as above. Type of assay: cell-based, Enterobacter gergoviae & Klebsiella species. The following applies: individual chemical; tryptic soy broth, 30° C., 24 hours, OD600; MIC = <25% growth vs positive growth control.
Text: as §1, §2, §3

On to `O=C([O-])c1ccccc1.[Na+]` [Sodium benzoate], for which, in assay [1], the “MIC Gram negative non-fermenting bacteria” value was 1 wt %. Further, in assay [2], the “MIC Gram negative fermenting bacteria” value was 1 wt %.
Regarding `OCc1ccccc1` [Benzyl alcohol, reference compound], the “MIC Gram negative non-fermenting bacteria” value in assay [1] worked out at 0.125 wt %. Also, the “MIC Gram negative fermenting bacteria” value in assay [2] is reported as 0.5 wt %.
For `C=C(CC(=O)O)C(=O)O` [Itaconic acid] the same measures were 0.5 wt % and 0.5 wt %.

The values are drawn from patent US11684557B2, “Preservation compositions” (Conopco, Inc., priority 2018, dated 2023).
